Experimental findings from patent US9944645B2, “Imidazotriazines and imidazopyrimidines as kinase inhibitors” (Incyte Holdings Corporation, priority 2006, dated 2018) are described below.

One may read the IC50 as the concentration at which inhibition is half-maximal.

Molecules are shown by their SMILES.

In this experiment the target is c-Met kinase (h-Met; histidine-tagged c-Met catalytic domain fusion protein) (Homo sapiens (Human), UniProt P08581). Description: In Vitro c-Met Kinase Enzyme Assays. The conditions noted are these: phosphorylation of poly Glu-Tyr, 5 μM ATP, 25 minutes at 30° C. Type of experiment: biochemical. As for the experimental part: Compounds were screened in vitro for their ability to inhibit c-Met kinase activity. […] Briefly, histidine-tagged c-Met catalytic domain fusion protein (Invitrogen, #PV3143) was used for the assay. […] The reaction lasted for 25 minutes at 30° C. After the reaction was completed, the contents of the plates was discarded. Plates were then washed with TBS-T (250 μL/well, 5×) and then blocked with TBS-T containing 1% BSA for 2 hours. The contents of the plates was discarded, and 100 μL (per well) of peroxidase-labeled anti-phospho-tyrosine antibody (Sigma, #A5964) diluted (1:60,000) in 1% BSA containing TBS-T were then added and incubated for 1 hour. Plates were washed with TBS-T ([…], 5×) and followed by the color reaction using 100 μL (1:1 mixture) of H2O2 and tetramethylbenzidine (R&D Systems, #DY999). The reaction was stopped in minutes with 100 μL of 2 N H2SO4. The optical density was measured immediately using a microplate reader at 450 nm with wavelength correction at 540 nm. IC50 values were calculated with the GraphPad Prism software. The linear range (i.e., the time period over which the rate remained equivalent to the initial rate) was determined for the kinase and IC50 determinations were performed within this range.
c-Met kinase (h-Met; histidine-tagged c-Met catalytic domain fusion protein), sequence (P08581 1078-1345): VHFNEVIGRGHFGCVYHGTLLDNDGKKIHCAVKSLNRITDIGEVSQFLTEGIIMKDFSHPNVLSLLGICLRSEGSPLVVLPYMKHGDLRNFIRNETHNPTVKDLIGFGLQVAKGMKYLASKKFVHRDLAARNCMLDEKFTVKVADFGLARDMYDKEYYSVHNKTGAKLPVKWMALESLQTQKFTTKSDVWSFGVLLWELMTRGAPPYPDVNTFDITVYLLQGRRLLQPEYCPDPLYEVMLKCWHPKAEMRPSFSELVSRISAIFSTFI
`COC1CCN(C(=O)C(C)NC(=O)c2ccc(-c3cnc4ncc(C5(c6ccc7ncccc7c6)CC5)n4c3)cc2F)C1` (single isomer, unassigned) [Example 201]: the IC50 is less than 500 nM.

Take `N#CC1CCN(C(=O)c2ccc(-c3cnc4ncc(C5(c6ccc7ncccc7c6)CC5)n4c3)cc2)C1` (stereo in doubt) [Example 52, (3R)-1-{4-[3-(1-Quinolin-6-ylcyclopropyl)imidazo[1,2-a]pyrimidin-6-yl]benzoyl}pyrrolidine-3-carbonitrile]: the IC50 was less than 500 nM. In turn, `COc1ccc(Cc2cnc3ncc(-c4ccc(F)cc4)nn23)cc1` [Example 1] came in with an IC50 of less than 500 nM.

`COc1ccc(C2(c3cnc4ncc(-c5ccc(F)cc5)nn34)CC2)cc1` [Example 2, 2-(4-Fluorophenyl)-7-[1-(4-methoxyphenyl)cyclopropyl]imidazo[1,2-b]-[1,2,4]-triazine]: the IC50 was less than 500 nM. The same measure for `Fc1ccc(-c2cnc3ncc(C4(c5ccc6ncccc6c5)CC4)n3n2)cc1` [Example 3, 6-(1-(2-(4-Fluorophenyl)imidazo[1,2-b][1,2,4]-triazin-7-yl)cyclopropyl)quinoline]: less than 500 nM; for `COc1ccc(Cc2cnc3ncc(-c4ccc(F)cc4)cn23)cc1` [Example 4, 6-(4-Fluorophenyl)-3-(4-methoxybenzyl)imidazo[1,2-a]pyrimidine]: less than 500 nM; for `COc1ccc(C2(c3cnc4ncc(-c5ccc(F)cc5)cn34)CC2)cc1` [Example 5, 6-(4-Fluorophenyl)-3-(1-(4-methoxyphenyl)cyclopropyl)imidazo[1,2-a]pyrimidine]: less than 500 nM.

`Fc1ccc(-c2cnc3ncc(C4(c5ccc6ncccc6c5)CC4)n3c2)cc1` [Example 6, 6-(1-(6-(4-Fluorophenyl)imidazo[1,2-a]pyrimidin-3-yl)cyclopropyl)quinoline] returned an IC50 of less than 500 nM.

`COc1ccc(Sc2cnc3ncc(-c4ccc(Br)c(F)c4)nn23)cc1` [Example 8, 2-(4-Bromo-3-fluorophenyl)-7-[(4-methoxyphenyl)thio]imidazo[1,2-b][1,2,4]triazine] came in with an IC50 of less than 500 nM. `CNC(=O)c1ccc(-c2cnc3ncc(Sc4ccc(OC)cc4)n3c2)cc1F` [Example 9, 2-Fluoro-4-(3-[(4-methoxyphenyl)thio]imidazo[1,2-a]pyrimidin-6-yl)-N-methylbenzamide] came in with a concentration for half-maximal inhibition (IC50) of less than 500 nM. With `CNC(=O)c1ccc(-c2cnc3ncc(Sc4ccc(OC)cc4)n3c2)cc1Cl` [Example 10, 2-chloro-4-3-[(4-methoxyphenyl)thio]imidazo[1,2-a]pyrimidin-6-yl-N-methylbenzamide], the IC50 is less than 500 nM.

`CNC(=O)c1ccc(-c2cnc3ncc(Sc4ccc5ncccc5c4)n3c2)cc1F` [Example 11, 2-Fluoro-N-methyl-4-[3-(quinolin-6-ylthio)imidazo[1,2-a]pyrimidin-6-yl]benzamide] came in with an IC50 of less than 500 nM. The same measure for `CNC(=O)c1ccc(-c2cnc3ncc(Sc4ccc5ncccc5c4)n3c2)cc1Cl` [Example 12, 2-chloro-N-methyl-4-[3-(quinolin-6-ylthio)imidazo[1,2-a]pyrimidin-6-yl]benzamide]: less than 500 nM; for `COC(=O)c1ccc(-c2cnc3ncc(Sc4ccc5ncccc5c4)n3n2)cc1F` [Example 13, Methyl 2-fluoro-4-[7-(quinolin-6-ylthio)imidazo[1,2-b][1,2,3]triazin-2-yl]benzoate]: less than 500 nM; for `COc1ccc(Oc2cnc3ncc(-c4ccc(Br)c(F)c4)nn23)cc1` [Example 14, 2-(4-Bromo-3-fluorophenyl)-7-(4-methoxyphenoxy)imidazo[1,2-b][1,2,4]triazine]: less than 500 nM. The value for `COc1ccc(Oc2cnc3ncc(-n4cc(C)cn4)cn23)cc1` [Example 15, 3-(4-Methoxyphenoxy)-6-(4-methyl-1H-pyrazol-1-yl)imidazo[1,2-a]pyrimidine] was less than 500 nM; that for `COc1ccc(Oc2cnc3ncc(-c4ccc(Br)cc4)cn23)cc1` [Example 16, 6-(4-Bromophenyl)-3-(4-methoxyphenoxy)imidazo[1,2-a]pyrimidine] was less than 3000 nM. The molecule `CNC(=O)c1ccc(-c2cnc3ncc(Oc4ccc5ncccc5c4)n3c2)cc1Cl` [Example 17, 2-chloro-N-methyl-4-[3-(quinolin-6-yloxy)imidazo[1,2-a]pyrimidin-6-yl]benzamide] yielded an IC50 of less than 500 nM. The same measure for `CNC(=O)c1ccc(-c2cnc3ncc(C4(c5ccc6ncccc6c5)CC4)n3c2)cc1F` [Example 18, 2-Fluoro-N-methyl-4-[3-(1-quinolin-6-ylcyclopropyl)imidazo[1,2-a]pyrimidin-6-yl]benzamide]: less than 500 nM; for `COc1ccc(Sc2cnc3ncc(-c4ccc(Br)cc4)cn23)cc1` [Example 19, 6-(4-bromophenyl)-3-[(4-methoxyphenyl)thio]imidazo[1,2-a]pyrimidine]: less than 500 nM.

Regarding `COc1ccc(Sc2cnc3ncc(-c4ccc(F)cc4)nn23)cc1` [Example 20, 2-(4-fluorophenyl)-7-[(4-methoxyphenyl)thio]imidazo[1,2-b][1,2,4]triazine], the IC50 is less than 500 nM. The same measure for `CC(Oc1ccc(-c2cnc3ncc(C4(c5ccc6ncccc6c5)CC4)n3c2)cc1F)C(=O)N1CCCC1` (centres unmarked) [Example 21, 6-(1-{6-[3-Fluoro-4-(1-methyl-2-oxo-2-pyrrolidin-1-ylethoxy)phenyl]imidazo[1,2-a]pyrimidin-3-yl}cyclopropyl)quinoline]: less than 500 nM; for `c1cnc2ccc(C3(c4cnc5ncc(-n6cccn6)cn45)CC3)cc2c1` [Example 22, 6-{1-[6-(1H-Pyrazol-1-yl)imidazo[1,2-a]pyrimidin-3-yl]cyclopropyl}quinoline]: less than 500 nM. Molecule `Cc1cnn(-c2cnc3ncc(C4(c5ccc6ncccc6c5)CC4)n3c2)c1` [Example 23, 6-{1-[6-(4-Methyl-1H-pyrazol-1-yl)imidazo[1,2-a]pyrimidin-3-yl]cyclopropyl}quinoline] yielded an IC50 of less than 500 nM. The value for `CN(C)C(=O)c1cnn(-c2cnc3ncc(C4(c5ccc6ncccc6c5)CC4)n3c2)c1` [Example 24, N,N-Dimethyl-1-[3-(1-quinolin-6-ylcyclopropyl)imidazo[1,2-a]pyrimidin-6-yl]-1H-pyrazole-4-carboxamide] was less than 500 nM; that for `Cc1csc(C(C)NC(=O)c2cnn(-c3cnc4ncc(C5(c6ccc7ncccc7c6)CC5)n4c3)c2)n1` (centres unmarked) [Example 25, N-[1-(4-Methyl-1,3-thiazol-2-yl)ethyl]-1-[3-(1-quinolin-6-ylcyclopropyl)imidazo[1,2-a]pyrimidin-6-yl]-1H-pyrazole-4-carboxamide] was less than 500 nM; that for `O=C(NC1CCCCC1)c1cnc2ncc(C3(c4ccc5ncccc5c4)CC3)n2c1` [Example 26, N-Cyclohexyl-3-(1-quinolin-6-ylcyclopropyl)imidazo[1,2-a]pyrimidine-6-carboxamide] was less than 500 nM. In turn, `O=C(NCC1CCCO1)c1cnc2ncc(C3(c4ccc5ncccc5c4)CC3)n2c1` (centres unmarked) [Example 27, 3-(1-Quinolin-6-ylcyclopropyl)-N-(tetrahydrofuran-2-ylmethyl)imidazo[1,2-a]pyrimidine-6-carboxamide] displayed an IC50 of less than 500 nM.

For `O=C(NC1CCC1)c1ccc(-c2cnc3ncc(C4(c5ccc6ncccc6c5)CC4)n3c2)cc1` [Example 28, N-Cyclobutyl-4-[3-(1-quinolin-6-ylcyclopropyl)imidazo[1,2-a]pyrimidin-6-yl]benzamide], the IC50 is less than 500 nM.
